# Literature values, collected in patent US10927398B2, “Compositions for CYP450 phenotyping using saliva samples” (Concordia University, Inc., priority 2015, dated 2021).
# Where two headings read alike, the source gives them in different places.
# Tests used:
# [1] = tested on: plasma protein; conditions: Table of Exemplary Drugs, cited from earlier work
# [2] = cited from earlier work
# [3] = cited from earlier work; remark: listed apart in the source
# [4] = Table of Exemplary Drugs, CYP3A4
# [5] = Table of Exemplary Drugs, CYP1A2
# [6] = Table of Exemplary Drugs, CYP2C19
# [7] = Table of Exemplary Drugs, CYP2D6
# [8] = Table of Exemplary Drugs, CYP2C9
Structure (SMILES),PLASMA PROTEIN BINDING ([1]; CYP3A4),"ORAL BIOAVAILABILITY [2, 4]","HALF-LIFE [3, 4]",also measured
"CC(C)(C)c1ccc(C(=O)CCCN2CCC(OC(c3ccccc3)c3ccccc3)CC2)cc1 [Ebastine (Kestine), Ebastine]",98%,“High”,24.8 h,
"CC(C)CC(N(C)C)C1(c2ccc(Cl)cc2)CCC1 (stereo not shown) [Sibutramine (Meridia), Sibutramine]",97%,77%,1.1 h,
"Cc1ccsc1C(=CCCN1CCC[C@@H](C(=O)O)C1)c1sccc1C [Tiagabine (Gabitril), Tiagabine]",96%,90%,7 to 9 h,
CN1CCN(C2=Nc3cc(Cl)ccc3Nc3ccccc32)CC1 [Clozapine],,,,"PLASMA PROTEIN BINDING ([1]; CYP1A2): 97%; ORAL BIOAVAILABILITY [2, 5]: 12-81%; HALF-LIFE [3, 5]: 4 to 66 h"
CC[C@H]1OC(=O)[C@H](C)[C@@H](O[C@H]2C[C@@](C)(OC)[C@@H](O)[C@H](C)O2)[C@H](C)[C@@H](O[C@@H]2O[C@H](C)C[C@H](N(C)C)[C@H]2O)[C@](C)(O)C[C@@H](C)C(=O)[C@H](C)[C@@H](O)[C@]1(C)O [Erythromycin],90%,30-65%,1 to 1.5 h,
COc1ccc2nc([S@@+]([O-])Cc3ncc(C)c(OC)c3C)[nH]c2c1 [Esomeprazole],,,,"PLASMA PROTEIN BINDING ([1]; CYP2C19): 97%; ORAL BIOAVAILABILITY [2, 6]: 90%; HALF-LIFE [3, 6]: 1.5 h"
"Cc1ccnc2c1NC(=O)c1cccnc1N2C1CC1 [Nevirapine (Viramune), Nevirapine]",60%,80-94%,25 to 45 h,
"C=CC[C@@H]1/C=C(\C)C[C@H](C)C[C@H](OC)[C@H]2O[C@@](O)(C(=O)C(=O)N3CCCC[C@H]3C(=O)O[C@H](/C(C)=C/[C@@H]3CC[C@@H](O)[C@H](OC)C3)[C@H](C)[C@@H](O)CC1=O)[C@H](C)C[C@@H]2OC [Tacrolimus (Prograf), Tacrolimus]",99%,17-31%,8.7 to 37.9 h,
"CCC[C@@]1(CCc2ccccc2)CC(O)=C([C@H](CC)c2cccc(NS(=O)(=O)c3ccc(C(F)(F)F)cn3)c2)C(=O)O1 [Tipranavir (Aptivus), Tipranavir]",99.9%^,30?%,5.5 to 6 h,
"CCC1(C)CC(=O)NC1=O (stereo not shown) [Ethosuximide (Zarontin), Ethosuximide]",,93%,25 to 60 h,
COc1ccc(C(=O)Nc2ccccc2CCC2CCCCN2C)cc1 (stereo not shown) [Encainide],,,,"PLASMA PROTEIN BINDING ([1]; CYP2D6): 70.5-78% ^; ORAL BIOAVAILABILITY [2, 7]: 25-90%; HALF-LIFE [3, 7]: 1.5 to 11.3 h"
"CCOC(=O)C1=C(C)NC(C)=C(C(=O)OC)C1c1cccc([N+](=O)[O-])c1 (stereo not shown) [Nitrendipine (Baypress), Nitrendipine]",97-99% ^,23%,2 to 24 h,
CC(C)[C@H]1CC[C@H](C(=O)N[C@H](Cc2ccccc2)C(=O)O)CC1 [Nateglinide],,,,"PLASMA PROTEIN BINDING ([1]; CYP2C9): 98%; ORAL BIOAVAILABILITY [2, 8]: 73%; HALF-LIFE [3, 8]: 1.5 h"
"CC(=O)N1CCN(c2ccc(OCC3COC(Cn4ccnc4)(c4ccc(Cl)cc4Cl)O3)cc2)CC1 (stereo not shown) [Ketoconazole (Nizoral), Ketoconazole]",99%,75%,2 to 8 h,
CC(N)Cc1ccccc1 (stereo not shown) [Amphetamine],,,,"ORAL BIOAVAILABILITY ([2]; in vivo, po): 100+%"
"CN1C[C@H](C(=O)N[C@]2(C)O[C@@]3(O)[C@@H]4CCCN4C(=O)[C@H](Cc4ccccc4)N3C2=O)C=C2c3cccc4[nH]cc(c34)C[C@H]21 [Ergotamine (Ergomar), Ergotamine]",,,,"ORAL BIOAVAILABILITY ([2]; in vivo, po): <5%; HALF-LIFE ([3]; in vivo): 1.5 to 2.5 h"
"CC(C)(C)NC(=O)[C@H]1CC[C@H]2[C@@H]3CC[C@H]4NC(=O)C=C[C@]4(C)[C@H]3CC[C@]12C [Finasteride (Proscar), Finasteride]",,65%,4.5 h,
"O=C1Cc2cc(CCN3CCN(c4nsc5ccccc45)CC3)c(Cl)cc2N1 [Ziprasidone (Geodon), Ziprasidone]",,60%,7 h,
"C[C@H](/C=C/[C@H](C)C(C)(C)O)[C@H]1CC[C@H]2/C(=C/C=C3C[C@@H](O)C[C@H](O)C3)CCC[C@]12C [Paricalcitol (Zemplar), Paricalcitol]",,72%,5 to 7 h,
"CCOC(=O)C1=C(C)NC(C)=C(C(=O)OC)C1c1cccc(Cl)c1Cl (stereo not shown) [Felodipine (Plendil), Felodipine]",,13-20%,,
COc1cc2c(c(OC)c1OC)-c1ccc(OC)c(=O)cc1[C@@H](NC(C)=O)CC2 [Colchicine],,45%,26.6 to 31.2 h,
"Nc1ccc(S(=O)(=O)c2ccc(N)cc2)cc1 [Dapsone (Avlosulfon), Dapsone]",70-90% ^,86-104%,,
CC(C)NCC(O)COc1cccc2ccccc12 (stereo not shown) [Propranolol],,,,"ORAL BIOAVAILABILITY [2, 5]: 100%; ORAL BIOAVAILABILITY [2, 6]: 30-70%; ORAL BIOAVAILABILITY [2, 7]: 30-70%; HALF-LIFE [3, 5]: 4 h; HALF-LIFE [3, 6]: 3 to 6 h; HALF-LIFE [3, 7]: 3 to 6 h"
O=C(O)Cc1ccccc1Nc1c(Cl)cccc1Cl [Diclofenac],,,,"ORAL BIOAVAILABILITY [2, 8]: 50%; HALF-LIFE [3, 8]: 1.9 to 2.2 h"
C=C[C@H]1C[N@@]2CC[C@H]1C[C@@H]2[C@@H](O)c1ccnc2ccc(OC)cc12 [Quinidine],50-88% ^,70-80%,,
OCCN1CCN(CCCN2c3ccccc3Sc3ccc(Cl)cc32)CC1 [Perphenazine],,,,"ORAL BIOAVAILABILITY [2, 7]: 20%; HALF-LIFE [3, 7]: 9 to 12 h"

Structure (SMILES),PLASMA PROTEIN BINDING ([1]; CYP3A4),"ORAL BIOAVAILABILITY [2, 4]","HALF-LIFE [3, 4]",also measured
"CC1(C)O[C@@H]2[C@@H](CO[C@@]3(COS(N)(=O)=O)OC(C)(C)O[C@@H]23)O1 [Topiramate (Topamax), Topiramate]",15-41% ^,80%,,
CC(C)(C)NC[C@H](O)COc1nsnc1N1CCOCC1 [Timolol],,,,"PLASMA PROTEIN BINDING ([1]; CYP2D6): <10%; ORAL BIOAVAILABILITY [2, 7]: 90%"
COc1ccc(C(CN(C)C)C2(O)CCCCC2)cc1 (stereo not shown) [Venlafaxine],,,,"PLASMA PROTEIN BINDING ([1]; CYP2D6): 27-30% ^; ORAL BIOAVAILABILITY [2, 7]: 12.6%"
"CCOC(=O)C1=C(COCCN)NC(C)=C(C(=O)OC)C1c1ccccc1Cl (stereo not shown) [Amlodipine (Norvasc), Amlodipine]",,64-90%,,
"CC(C)COCC(CN(Cc1ccccc1)c1ccccc1)N1CCCC1 (stereo not shown) [Bepridil (Vascor), Bepridil]",,60%,42 h,
C=C[C@H]1C[N@@]2CC[C@H]1C[C@H]2[C@H](O)c1ccnc2ccc(OC)cc12 [Quinine],,76-88%,,
Cc1ccc(-c2cc(C(F)(F)F)nn2-c2ccc(S(N)(=O)=O)cc2)cc1 [Celecoxib],,,,"PLASMA PROTEIN BINDING ([1]; CYP2C9): 97%; HALF-LIFE [3, 8]: 11 h"
"CN1CC(=O)N2[C@H](c3ccc4c(c3)OCO4)c3[nH]c4ccccc4c3C[C@@H]2C1=O [Tadalafil (Cialis), Tadalafil]",94%,,15 to 35 h,
COc1ccc2c(c1)N(C[C@H](C)CN(C)C)c1ccccc1S2 [Levomepromazine],,,,"ORAL BIOAVAILABILITY [2, 7]: 50-60%; HALF-LIFE [3, 7]: 15 h"
CC(c1cc2ccccc2s1)N(O)C(N)=O (stereo not shown) [Zileuton],,,,"PLASMA PROTEIN BINDING ([1]; CYP1A2): 93%; HALF-LIFE [3, 5]: 2.5 to 3.2 h"
"CC(C)CN(C[C@@H](O)[C@H](Cc1ccccc1)NC(=O)O[C@H]1CO[C@H]2OCC[C@H]21)S(=O)(=O)c1ccc(N)cc1 [Darunavir (Prezista), Darunavir]",,37%,,
Cc1cc2c(s1)Nc1ccccc1N=C2N1CCN(C)CC1 [Olanzapine],,,,"ORAL BIOAVAILABILITY [2, 5]: 87%; HALF-LIFE [3, 5]: 21 to 54 h"
"COc1cc2ncnc(Nc3ccc(F)c(Cl)c3)c2cc1OCCCN1CCOCC1 [Gefitinib (Iressa), Gefitinib]",,60%,,
CCCc1nn(C)c2c(=O)[nH]c(-c3cc(S(=O)(=O)N4CCN(C)CC4)ccc3OCC)nc12 [Sildenafil],96%,,,"PLASMA PROTEIN BINDING ([1]; CYP2C9): 96%; HALF-LIFE [3, 8]: 4 h"
CC(C)Cc1ccc(C(C)C(=O)O)cc1 (stereo not shown) [Ibuprofen],,,,"ORAL BIOAVAILABILITY [2, 8]: 87-100%"
CCN(CC)CCNC(=O)c1cc(Cl)c(N)cc1OC [Metoclopramide],,,,"PLASMA PROTEIN BINDING ([1]; CYP2D6): 30%; HALF-LIFE [3, 7]: 5 to 6 h"
Cc1c(OCC(F)(F)F)ccnc1C[S+]([O-])c1nc2ccccc2[nH]1 (stereo not shown) [Llansoprazole],,,,"PLASMA PROTEIN BINDING ([1]; CYP2C19): 97-99% ^; HALF-LIFE [3, 6]: 0.9 to 1.5 h"
CN(C)CCc1c[nH]c2ccc(C[C@H]3COC(=O)N3)cc12 [Zolmitriptan],,,,"PLASMA PROTEIN BINDING ([1]; CYP1A2): 25%; ORAL BIOAVAILABILITY [2, 5]: ~40%"
"CN(C)C(=O)C(CCN1CCC(O)(c2ccc(Cl)cc2)CC1)(c1ccccc1)c1ccccc1 [Loperamide (Imodium), Loperamide]",,0.30%,9 to 14 h,
Clc1ccc2nsnc2c1NC1=NCCN1 [Tizanidine],,,,"PLASMA PROTEIN BINDING ([1]; CYP1A2): 30%; ORAL BIOAVAILABILITY [2, 5]: 40%"
CN(C)CCCN1c2ccccc2CCc2ccccc21 [Imipramine],,,,"PLASMA PROTEIN BINDING ([1]; CYP1A2): 60-96% ^; PLASMA PROTEIN BINDING ([1]; CYP2C19): 89%; PLASMA PROTEIN BINDING ([1]; CYP2D6): 89%; ORAL BIOAVAILABILITY [2, 5]: 22-77%; ORAL BIOAVAILABILITY [2, 6]: 94-96%; ORAL BIOAVAILABILITY [2, 7]: 94-96%"
"C/C(=C\c1csc(C)n1)[C@@H]1C[C@@H]2O[C@]2(C)CCC[C@H](C)[C@H](O)[C@@H](C)C(=O)C(C)(C)[C@@H](O)CC(=O)N1 [Ixabepilone (Ixempra), Ixabepilone]",67-77% ^,,52 h,
COc1ccc2[nH]cc(CCNC(C)=O)c2c1 [Melatonin],,,,"ORAL BIOAVAILABILITY [2, 5]: 3-76%; HALF-LIFE [3, 5]: 0.583 to 0.833 h"
"NC(=O)N1c2ccccc2C=Cc2ccccc21 [Carbamazepine (eg. Tegretol), Carbamazepine]",76%,,12 to 17 h,
CN1CCN2c3ncccc3Cc3ccccc3C2C1 (stereo not shown) [Mirtazapine],,,,"ORAL BIOAVAILABILITY [2, 7]: 50%"
CN1C(C(=O)Nc2ccccn2)=C(O)c2ccccc2S1(=O)=O [Piroxicam],,,,"PLASMA PROTEIN BINDING ([1]; CYP2C9): 99%; HALF-LIFE [3, 8]: 50 h"
